Reference: US20100292260A1, “6-VINYL PYRIMIDINE AND PYRIMIDINONE DERIVATIVES AND THE USE THEREOF” (priority 2005, published 2010)
pEC50, pIC50: −log10 of the molar value. Read-outs that look alike come from different tables or passages of the source.

What was measured:
[1] = system: wild strain of HIV-1 NL4-3; experiment: Inhibition of viral proliferation on culture cells (MT-4, MTT), wild strain; assay type: cell-based
Method: (§1) The biological activity of the compounds was evaluated on lymphoid cell lines MT-4 against the wild strain of HIV-1 NL4-3. The MT-4 cells were briefly infected with the appropriate HIV-1 or the infection was simulated to determine the cytoxicity, in the presence of different concentrations of potential inhibitor compounds. 5 days after the infection a colorimetric method was used that involves using a tetrazole salt (MTT) to evaluate the number of surviving cells. The mutant IRLL98 HIV-1 contains the following mutations in the coding sequence for RT:M41L, D67N, Y181C, M184V, R211K, T215Y (resistance to NRTI) and the mutations K101Q, Y181C, G190A (resistance to NNRTI). The H1V-1 mutants containing multi-NNRTI mutations, K103N or Y188L as mutants were supplied by the Medical Research Council Centralised Facility for AIDS Reagents, Herfordshire, UK.

HIV-1 mutant K103N = experiment: Inhibition of viral proliferation on culture cells (MT-4, MTT), K103N mutant; assay type: cell-based
Method: as §1

HIV-1 mutant Y181C = experiment: Inhibition of viral proliferation on culture cells (MT-4, MTT), Y181C mutant; assay type: cell-based; conditions: Table 3; at 56.18
Method: as §1

HIV-1 mutant Y188L = experiment: Inhibition of viral proliferation on culture cells (MT-4, MTT), Y188L mutant; assay type: cell-based; conditions: Table 3; cell test; read-out: Y188L
Method: as §1

MT-4 cells = experiment: Cytotoxicity in mock-infected MT-4 cells (MTT); assay type: cell-based
Method: as §1

HIV-1 mutant Y181L = experiment: Inhibition of viral proliferation on culture cells (MT-4, MTT), Y181L mutant; assay type: cell-based
[2] = target: T1, HIV-1 (recombinant) reverse transcriptase (Human immunodeficiency virus type 1 group M subtype B, UniProt P03366); experiment: Enzyme test: reverse transcription reaction in vitro with recombinant RT, wild type; assay type: biochemical; conditions: for pIC50: Table 1, recombinant RT wild type, read-out: ID50 WT
T1 construct: 20-50 nM HIV-1 (recombinant) reverse transcriptase
Method: (§2) In a final volume of 25 microlitres the following reagents were mixed: 50 mM Tris-HCl pH 7.5, 0.25 mg/ml BSA, 0.5 mM DTT, 20-50 nM HIV-1 (recombinant) reverse transcriptase, nucleotide substrate dTTP marked radioactively (^3H, 4 Ci/mmol) and nucleic acid (poly(rA)/oligo(dT)). The concentrations of dTTP and poly(rA)/oligo(dT) in standard conditions were 5 μM and 0.5 μM, respectively.
(§3) The reaction mixture is incubated 10 min. at 37° C. and 20 μl are removed and deposited on a GF/C Whatman glass fibre filter measuring 25 mm in diameter. The filters are washed 3 times for 5 min. in 5% trichloroacetic acid and once for 5 min. in absolute alcohol. After being dried, the filters are immersed in a scintillating mixture (Packard) and the acid precipitable radioactivity is measured by a scintillation counter for β-emitting isotopes (Beckman).
(§4) The dose-response curves obtained by means of samples of enzyme activity in the presence of increasing doses of inhibitor were analysed according to the equation E(%)=Emax/([…], where E(%) is the fraction of enzyme activity that is measurable in the presence of each concentration of inhibitor, Emax is the activity in the absence of an inhibitor, I is the concentration of inhibitor. The ID50 was calculated by analysing data using the GraphPad Prism graphic interpolation programme (for Macintosh).

[3] = target: T2, reverse transcriptase containing the mutation K103N (Human immunodeficiency virus type 1 group M subtype B, UniProt P03366, K702N); experiment: Enzyme test with mutated reverse transcriptase K103N; assay type: biochemical, HIV-1
T2 construct: cloning the gene of the mutated RT in an expression vector for prokariotic cells; made in house
Method: as §2, §3
(§5) In some experiments, the HIV-1 recombinant reverse transcriptase was substituted by a reverse transcriptase containing the mutations K.103N and Y181I. They were produced by cloning the gene of the mutated RT in an expression vector for prokariotic cells according to the method reported in the literature (Maga G, Amacker M, Ruel N, Hubscher U, Spadari S. Resistance to nevirapine of HIV-1 reverse transcriptase mutants: loss of stabilizing interactions and thermodynamic or steric barriers are induced by different single amino acid substitutions. J Mol Biol. Dec. 19, 1997; 274(5):738-47).
as §4

[4] = target: T3, reverse transcriptase containing the mutation Y181I (Human immunodeficiency virus type 1 group M subtype B, UniProt P03366, Y780I); experiment: Enzyme test with mutated reverse transcriptase Y181I; assay type: biochemical, HIV-1
T3 construct: cloning the gene of the mutated RT in an expression vector for prokariotic cells; made in house
Method: as §2, §3, §5, §4

[5] = Cytotoxicity in mock-infected MT-4 cells (MTT); assay type: cell-based; conditions: human
Method: as §1

[6] = Table 1, MT-4 cells, read-out: EC50 NL4-3 wt
[7] = Human immunodeficiency virus 1, NL43, MT4, read-out: EC50 NL4-3 wt
[8] = Human immunodeficiency virus 1, MT4, read-out: EC50 K103N
[9] = Human immunodeficiency virus 1, MT4, read-out: EC50 Y181L

| SMILES | pEC50 [1, 6] | CC50 (MT-4 cells) | pIC50 [2] | pIC50 [3] | pIC50 [4] | pEC50 [1, 7] | pEC50 (HIV-1 mutant K103N; [8]) | pEC50 (HIV-1 mutant Y181L; [9]) | CC50 at 5 days [5] | further results |
| --- | --- | --- | --- | --- | --- | --- | --- | --- | --- | --- |
| COc1ccc(C#CCSc2nc(Cc3c(Cl)cccc3Cl)c(C)c(=O)[nH]2)cc1 [Compound 27c] | – | – | – | – | – | – | – | – | – | pEC50 ([1]; Table 3, cell test, read-out: NLA-3wt): 5.61; pEC50 (HIV-1 mutant K103N; Table 3, cell test, read-out: K103N): < 4.25; Y181C, % at given concentration (HIV-1 mutant Y181C): 40% at; pEC50 (HIV-1 mutant Y188L): < 4.25; CC50 (MT-4 cells; Table 3, read-out: CC50): > 56.2 µM |
| C=Cc1cc(N(CC)CC)nc(SCc2ccc(OC)cc2)n1 [6′a] | < 4.48 | 33 µM | – | – | – | – | – | – | – | pEC50 (HIV-1 mutant K103N; Table 1, MT-4 cells, read-out: EC50 K103N): 5.44; pEC50 (HIV-1 mutant Y181L; Table 1, MT-4 cells, read-out: EC50 Y181L): < 4.45 |
| C=Cc1cc(N(C)C)nc(S(C)(=O)=O)n1 [Compound 8a] | – | – | 7.66 | 4.55 | 4.11 | < 3.96 | < 3.96 | < 3.96 | 110 µM | increase in activity in relation to the wild type enzyme [2]: 2900 times; inhibition of the RT at different concentrations of dTTP ([2]; FIG. 1): decreases with the increase of the concentrations of TTP; apparent affinity (Kapp) of the RT for dTTP ([2]; FIG. 2, different concentrations of 8a): decreases as the concentration of 8a increases; inhibition of the RT at different concentrations of poly(rA)/oligo(dT) ([2]; FIG. 3): increase of the capacity thereof to inhibit RT; preferred enzyme form bound ([2]; FIG. 3): preferentially binds to the binary complex of the RT with the nucleic acid; reverse transcriptase ID50 greater than that of MB3B ([2]; compared with MB3B): 3 orders of magnitude; action mechanism: inhibition of reverse transcriptase ([2]; versus nucleotide substrate): competitive with the nucleotide; activity against enzyme with resistance mutation in position 103, in words [3]: significantly active; activity against enzyme with resistance mutation in position 181, in words [4]: significantly active; activity in cell tests on wild type, in words [1]: did not show appreciable activity |
| C=Cc1cc(N(CC)CC)nc(S(=O)(=O)Cc2ccc(OC)cc2)n1 [8′] | < 4.37 | 42.9 µM | 3.33 | – | – | – | – | – | – | – |
| C=Cc1nc(S(C)(=O)=O)nc(N(C)C)c1I [Compound 8b] | – | – | 3.56 | < 3.40 | < 3.40 | < 4.64 | < 4.64 | < 4.64 | 22.9 µM | – |
